Data from US8753652B2, “Pharmaceutical composition including a DHA ester to be administered parenterally” (Pierre Fabre Medicament, priority 2009, dated 2014).

Key:
[1] = Lipophilicity (Log P) of the nicotinic ester of DHA; type: physicochemical
Experimental: (§1) It is a very lipophilic compound (Log P approximately 7), wherein the solubility at equilibrium in water is <1 μg/ml. It is thus particularly difficult to formulate for parenteral administration.

[2] = Solubility at equilibrium in water; type: physicochemical; details: thermodynamic from solid
Experimental: as §1

**Q.** With `CC/C=C\C/C=C\C/C=C\C/C=C\C/C=C\C/C=C\CCC(=O)OCc1cccnc1` [nicotinic ester of DHA, pyridin-3-ylmethyl-cis-4,7,10,13,16,19-docosahexaenoic acid] as the molecule, how does the logP [1] read?
**A.** Its logP is ~7.

**Q.** What about the solubility [2] of the same molecule?
**A.** The solubility was < 1 µg/mL.
